Reference: patent publication US20140249143A1, “Compounds And Methods For Enhancing Innate Immune Responses” (GlaxoSmithKline LLC, priority 2011, published 2014)

B1: murine IFNα: murine IFNα2 administered intravenously to mice (30 ug/kg) as comparator (protein, UniProt P01573 24-190, looked up)
Interferon alpha-2: CDLPHTYNLRNKRALKVLAQMRRLPFLSCLKDRQDFGFPLEKVDNQQIQKAQAIPVLRDLTQQTLNLFTSKASSAAWNATLLDSFCNDLHQQLNDLQTCLMQQVGVQEPPLTQEDALLAVRKYFHRITVYLREKKHSPCAWEVVRAEVWRALSSSVNLLPRLSEEKE
B2: IFNγ: type II interferon used as control treatment (100 U/ml) (protein, UniProt P01579 24-161, looked up)
Interferon gamma: QDPYVKEAENLKKYFNAGHSDVADNGTLFLGILKNWKEESDRKIMQSQIVSFYFKLFKNFKDDQSIQKSVETIKEDMNVKFFNSNKKKRDDFEKLTNYSVTDLNVQRKAIHELIQVMAELSPAAKTGKRKRSQMLFRG

Key:
[1] = test system: reconstructed human epidermis (RHE) keratinocytes; assay: JAK/STAT induction in reconstructed human epidermis (western blot, real-time PCR); assay type: cell-based; details: 10 μM (IFN-alpha 100 U/mL), 6 and 72 hrs
Method: First, reconstructed human epidermis (“RHE”) consisting of cultured human keratinocyte cells were incubated in triplicate with media containing either the media alone, media+0.1% DMSO, media containing 10 μM of several putative JAK/STAT activator compounds described herein in Tables 1 and 2 (Example 1, Example 2, Example 11, and compound no. 89 (as a negative control)), or media containing 100 U/mL of a positive control Interferon-alpha (IFN-alpha) recombinant protein at 37° C. in a humidified atmosphere containing 5% CO2, for 6 and 72 hours.
At the end of the incubation period, the RHE tissues were cut into two sections. One section was ¼ of the total size and the second section was […].

[2] = test system: HCV genotype 1b subgenomic replicon; assay: Anti-Hepatitis C replicon assay, genotype 1b (luciferase); assay type: cell-based; details: Hepatitis C virus; luciferase activity measured 48 hours later; read-out: HCV Genotype 1B Replicon pEC50 (converted)
Method: (§1) Compounds were assayed for activity against HCV using the genotype 1a and 1b subgenomic replicon model systems. Stable cell lines bearing the genotype 1a and 1b replicons were used for screening of compounds. Both replicons are bicistonic and contain the firefly luciferase gene. The ET cell line is stably transfected with RNA transcripts harboring a I389luc-ubi-neo/NS3-3′/ET replicon with firefly luciferase-ubiquitin-neomycin phosphotransferase fusion protein and EMCV-IRES driven NS3-5B polyprotein containing the cell culture adaptive mutations (E1202G; T1280I; K1846T) (Krieger at al, 2001 and unpublished). The genotype 1a replicon is a stable cell line licensed from Apath LLC, modified to contain the firefly luciferase gene. The cells were grown in DMEM, supplemented with 10% fetal calf serum, 2 mM Glutamine, Penicillin (100 IU/mL)/Streptomycin (100 μg/mL), 1× nonessential amino acids, and 250-500 μg/mL G418 (“Geneticin”). They were all available through Life Technologies (Bethesda, Md.). The cells were plated at 0.5×10^4 cells/well in 384 well plates containing compounds. The final concentration of compounds ranged between 0.03 pM to 50 μm and the final DMSO concentration of 0.5-1%.
(§2) Luciferase activity was measured 48 hours later by adding a Steady glo (Promega, Madison, Wis.). Percent inhibition of replication data was plotted relative to no compound control. Under the same condition, cytotoxicity of the compounds was determined using cell titer glo (Promega, Madison, Wis.). IC50s were determined from a 10 point dose response curve using 3-4-fold serial dilution for each compound, which spans a concentration range>1000 fold. BioAssay determines the level of inhibition for each compound by normalizing cross-talk corrected plate values against the negative (low or background, cells with no compound present) and positive (high DMSO, no cells) controls to determine Percent Inhibition:
(§3) These normalized values are exported to IC50 where they are plotted against the molar compound concentrations using the standard four parameter logistic equation: […]

[3] = test system: ISG56 (Interferon-Stimulated Gene 56) promoter ISRE; assay: ISG56 luciferase reporter assay in HEK 293 cells; assay type: cell-based; details: Homo sapiens, HEK293; HEK 293 reporter, 24 hours; 100% = small molecule control test compound; read-out: ISG56 (Average Max Response) %
Method: Compounds of the present invention were tested against a HEK (Human Embryonic Kidney) 293 cell line that was stably transfected with a firefly luciferase reporter gene under the control of the ISG56 (Interferon-Stimulated Gene 56) promoter ISRE (Interferon-Stimulated Response Element). While the ISRE is in the opposite orientation of the wild type promoter, literature^1 cites that the response elements are pallindromic and function properly in either orientation. ^1Reich, N., Evans, B., Levy, D., Fahey, D., Knight, E., Damell, J. E. (1987) Interferon-induced transcription of a gene encoding a 15-kDa protein depends on an upstream enhancer element. See, Proc. Natl. Acad. Sci. 84, (6394-6398).
In preparation for the assay, test compounds were serially diluted 3-fold in DMSO from a typical top concentration of 5 mM and plated at 0.2 μL in a 384-well, polystyrene, tissue culture treated plate with lid (Greiner Bio-One North America, Inc., Monroe, N.C.) to generate 11-point dose response curves in the assay. Low control wells (0% response) contained 0.2 μL of DMSO alone, and high control wells (100% response) contained 0.2 μL of a small molecule control test compound.
Frozen stocks of the transfected HEK 293 cells were washed and recovered in DMEM I Ham's F-12 media (Invitrogen Corporation, Carlsbad, Calif.) supplemented with 10% v/v qualified Australian fetal bovine serum (FBS) (Invitrogen Corporation, Carlsbad, Calif.), 1× GlutaMAX™ (Invitrogen Corporation, Carlsbad, Calif.), 1×MEM non-essential amino acids (NEAA) (Invitrogen Corporation, Carlsbad, Calif.) and 500 μg/ml Geneticin® (Invitrogen Corporation, Carlsbad, Calif.). The cells were diluted to 500,000 cells/mL in the supplemented DMEM/Ham's F-12 media, and 20 μL of the cell suspension were added to each well of the previously prepared 384-well compound plate, resulting in 10,000 cells/well. The plate, with lid, were placed in a 37° C., 5% CO2 humidified incubator for 24 hours.
Following incubation, the plates were removed and placed on the bench top without lids to equilibrate to room temperature for 30 minutes. Steady-Glo® (Promega Corporation, Madison, Wis.) was prepared according to the manufacturer's instructions, and 10 μL were added to each plate well. After a twenty minute incubation at room temperature, luminescence was read on a ViewLux™ (PerkinElmer Inc., Waltham, Mass.).
The data for dose responses were plotted as % activation versus compound concentration following normalization using the formula 100*((U−C1)/(C2−C1)), where U was the unknown value, C1 was the average of the low (0% response) control wells and C2 was the average of the high (100% response) control wells. Curve fitting was performed with the equation y=A+((B−A)/(1+(10^x/10^C)^D)), where A was the minimum response, B was the maximum response, C was the log(EC50) and D was the Hill slope. The results for each test compound were recorded as pEC50 values (—C in the above equation) and as max response values at a given concentration.

[4] = test system: HCV genotype 1a subgenomic replicon; assay: Anti-Hepatitis C replicon assay, genotype 1a (luciferase); assay type: cell-based; details: Hepatitis C virus; luciferase activity measured 48 hours later; read-out: HCV Genotype 1A Replicon pEC50 (converted)
Method: as §1, §2, §3

[5] = test system: ISGs and cytokines mRNA; assay: Induction of ISGs in mice in vivo; design: species or system Balb/c mice; details: Example 1 oral 300 mg/kg; murine IFNα2 30 ug/kg intravenously
Method: Naive Balb/c mice were purchased from Charles River Laboratories (Wilmington, Mass.) and administered with murine IFNα2 (30 ug/kg) intravenously or administered with oral Example 1 (300 mg/kg in 30/70% solutol/polyethylene glycol 400). The mice were then euthanized by CO2 inhalation at 0.5, 2, 6, 8, and 24 hours for sample collection. Four mice per dose group were tested.
For RNA isolation, the blood was collected in an RNAprotect™ tube (Qiagen) and processed with RNeasy Protect™ animal blood kit (Qiagen) according to the manufacturer's protocol. To preserve RNA, 30-200 mg of tissue pieces were stored in RNAlater™ solution (Invitrogen) until use. For RNA isolation, the thawed tissues were homogenized using a TissueLyser™ system (Qiagen) and processed with RNeasy 96 Universal Tissue Kit™ (Qiagen) according to the manufacturer's protocol. To remove DNA contamination, on-plate DNase digestion was included during the RNA purification.
(§4) For real time RT-PCR, cDNA was made using High Capacity cDNA Reverse Transcription Kit™ (Applied Biosystems). Gene expression was measured using TaqMan Fast Universal PCR Master Mix™ (Applied Biosystems) and gene specific probes and murine primers in HT7900 FAST System™ (Invitrogen). As housekeeping genes, actin and GAPDH were used for normalization. Data was calculated by the ΔΔCt method and fold change determined compared to non-treated control samples.

[6] = target: T1, human JAK1 (Homo sapiens, UniProt P23458); assay: JAK1 reconstitution in U4A and 2fGH cells (phosphor-STAT1 western blot, Taqman mRNA); assay type: cell-based; details: 100 U/ml
T1 construct: expressed in transfected cells; host or cells: U4A cells (JAK1-deficient derivative of the human fibroblast line 2fGH), transduced with a baculovirus mammalian expression system
T1 sequence (P23458 whole entry): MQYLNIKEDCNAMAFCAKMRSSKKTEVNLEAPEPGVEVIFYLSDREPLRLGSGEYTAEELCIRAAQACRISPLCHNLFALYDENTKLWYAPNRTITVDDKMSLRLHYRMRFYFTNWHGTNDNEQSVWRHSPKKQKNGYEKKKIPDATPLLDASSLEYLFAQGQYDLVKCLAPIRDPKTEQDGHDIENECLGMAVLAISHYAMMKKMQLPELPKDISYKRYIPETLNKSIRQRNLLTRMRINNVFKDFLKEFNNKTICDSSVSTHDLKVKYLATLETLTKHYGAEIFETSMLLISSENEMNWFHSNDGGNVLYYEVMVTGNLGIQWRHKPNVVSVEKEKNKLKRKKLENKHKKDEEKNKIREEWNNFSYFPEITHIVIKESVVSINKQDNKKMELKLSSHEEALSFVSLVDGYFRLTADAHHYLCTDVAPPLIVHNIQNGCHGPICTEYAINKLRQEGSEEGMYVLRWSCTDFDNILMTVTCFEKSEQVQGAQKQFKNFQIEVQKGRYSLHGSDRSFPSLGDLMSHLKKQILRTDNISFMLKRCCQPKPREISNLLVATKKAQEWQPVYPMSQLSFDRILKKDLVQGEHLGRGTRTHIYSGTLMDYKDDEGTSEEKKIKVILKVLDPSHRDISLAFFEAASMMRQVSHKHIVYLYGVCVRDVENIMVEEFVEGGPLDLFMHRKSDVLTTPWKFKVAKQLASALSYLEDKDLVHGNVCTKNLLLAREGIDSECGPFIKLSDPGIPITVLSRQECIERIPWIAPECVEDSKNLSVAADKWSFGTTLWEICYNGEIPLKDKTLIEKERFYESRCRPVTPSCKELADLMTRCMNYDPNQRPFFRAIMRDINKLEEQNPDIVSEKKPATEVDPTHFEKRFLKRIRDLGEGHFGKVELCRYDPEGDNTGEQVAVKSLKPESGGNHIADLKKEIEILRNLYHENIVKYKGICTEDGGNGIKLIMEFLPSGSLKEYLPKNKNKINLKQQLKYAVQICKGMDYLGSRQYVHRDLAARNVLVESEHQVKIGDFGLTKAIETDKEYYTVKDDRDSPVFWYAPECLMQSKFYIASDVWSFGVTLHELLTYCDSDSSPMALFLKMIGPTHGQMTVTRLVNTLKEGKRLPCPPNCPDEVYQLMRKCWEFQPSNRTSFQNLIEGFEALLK
Method: 2fGH and U4A cells were obtained from the Cleveland Clinic. 2fGH is a human fibroblast cell line and U4A cell line is a derivative 2fGH harboring a defect in JAK1 expression (Muller, et al., Nature 366, 129-135 (1993)). Green fluoroscent protein (GFP) or human JAK1 was transduced in U4A cells by baculovirus mammalian expression system. After 24 hours post transduction, the cells were treated with DMSO, Example 1 (10 μM), IFNα (100 U/ml), IFNβ (100 U/ml), or IFNγ (100 U/ml). Untransduced U4A cells and 2fGH cells were included as controls for 6 or 18 hours. The cells were harvested at indicated time points and used for detecting phosphor-STAT1 by western blot (FIG. 10, panel A) or for mRNA analysis by Taqman quantitation (FIG. 10, panel B).
The total cell lysates were analyzed on a 4-20% SDS-PAGE gradient gel and followed by immunoblotting using anti-phopho STAT1 antibody (Cell Signaling). The level of actin was monitored as a loading control. The bands were visualized by the alkaline phosphatase activity conjugated with the secondary antibody (Promega) using ProtoBlot II AP system (Promega).
as §4, with “Gene” for “For real time RT-PCR, cDNA was made using High Capacity cDNA Reverse Transcription Kit™ (Applied Biosystems). Gene”, “Mix” for “Mix™”, “System” for “System™”

Molecule | Stat1 phosphorylation (western blot) [1] | EC50 [2] | Emax [3] | EC50 [4] | up-regulation of ISGs at 24 hours [5] | expression of CXCL9 in 2fGH cells [6]
FC(F)(F)c1cc(C2CCCC2)nc2c1ccc1nc(-c3nnco3)cn12 [Compound 2, 2-[2-cyclopentyl-4-(trifluoromethyl)imidazo[1,2-a]1,8-naphthyridin-8-yl]-1,3,4-oxadiazole] | Stat1 phosphorylation | 251 nM | 31% | 50.1 nM | – | –
CCc1cc(C(F)(F)F)c2ccc3nc(-c4nnco4)cn3c2n1 [Compound 13, 2-[2-ethyl-4-(trifluoromethyl)imidazo[1,2-a]1,8-naphthyridin-8-yl]-1,3,4-oxadiazole] | – | 1000 nM | 346% | 398 nM | – | –
CC(=O)n1c(-c2nnco2)cc2ccc3c(C(F)(F)F)cc(C(F)(F)F)nc3c21 [Compound 22, 1-[2-(1,3,4-oxadiazol-2-yl)-6,8-bis(trifluoromethyl)-1H-pyrrolo[3,2-h]quinolin-1-yl]ethan-1-one] | – | 2000 nM | 60.5% | 501 nM | – | –
FC(F)(F)c1cc(C(F)(F)F)c2ccc3nc(-c4nnco4)c(Cl)n3c2n1 [Compound 18, 2-[9-chloro-2,4-bis(trifluoromethyl)imidazo[1,2-a]1,8-naphthyridin-8-yl]-1,3,4-oxadiazole] | – | 1580 nM | 27% | 251 nM | – | –
CCOc1cc(C(F)(F)F)c2ccc3nc(-c4nnco4)cn3c2n1 [Compound 10, 2-[2-ethoxy-4-(trifluoromethyl)imidazo[1,2-a]1,8-naphthyridin-8-yl]-1,3,4-oxadiazole] | – | 794 nM | 10% | 1000 nM | – | –
Cn1c(-c2nnco2)cc2ccc3c(C(F)(F)F)cc(C(F)(F)F)nc3c21 [Compound 16, 2-[1-methyl-6,8-bis(trifluoromethyl)-1H-pyrrolo[3,2-h]quinolin-2-yl]-1,3,4-oxadiazole] | – | 1000 nM | 35.5% | 251 nM | – | –
B1 | – | – | – | – | evidently diminished | –
B2 | – | – | – | – | – | only observed with IFNγ treatment
